Results: patent publication US8703829B2, “Therapeutic compounds” (University of Louisville Research Foundation, Inc., priority 2007, dated 2014)

Key:
[1] = system: total DNA methyltransferase activity in A549 non-small cell lung cancer cells; experiment: Test E experiments 1 and 2: DNA methyltransferase activity of nuclear extracts from treated A549 cells (EpiQuik kit); format: cell-based, human
Description: (§1) Test E The Methyltransferase Activity of the Compound of Example 1 was Evaluated as Follows.
(§2) For experiments 1 and 2, A549 non-small cell lung cancer cells were incubated with the compound of Example 1 (1 μM final concentration) or vehicle (untreated) for 2 h and nuclear extracts were prepared by standard methods. The total DNA methyltransferase activity of the extracts was measured using EpiQuik™ DNA Methyltransferase Activity/Inhibition Assay Kit (Epigentek, Brooklyn, N.Y.), according to the manufacturer's directions. For experiment 3, the assay was carried out using purified HeLa nuclear extracts in the presence of the compound of Example 1 (500 nM final concentration) or vehicle (untreated).
(§3) The assay involves incubation of nuclear extracts (as a source of DNA methyltransferase activity) with immobilized DNA substrate in the presence of Adomet (methyl donor). The DNA methyltransferase activity was measured by determining levels of 5-methylcytosine in the DNA substrate using a primary antibody to 5-methylcytosine and a secondary antibody for colorimetric detection at 450 nm.

[2] = system: A549 human non-small cell lung cancer xenografts; format: in vivo
Text: FIG. 2. […] (A) Tumor growth appeared to be reduced in mice treated with the compound of Example 1, but the effect was not statistically significant (p≧0.13). […] Compare with the mean±SE in the control group.
Test F In-vivo Effects of Compound of Example 1.
The following study was designed to assess toxicity and activity in female nude mice bearing A549 human non-small cell lung cancer xenografts. Athymic nude mice were inoculated subcutaneously (s.c.) with A549 cells and treatment began after small tumors were visible. The compound of Example 1 was prepared at 100 mg/ml or 50 mg/ml in DMSO and diluted 1:10 with sterile PBS. Mice were treated by intraperitoneal (i.p.) injections of 100 μl of these solutions, equivalent to approximately 25 mg/kg or 50 mg/kg; the control group received identical injections of vehicle (10% DMSO in PBS). Mice received injections of the compound of Example 1 or vehicle five times per week (once per day, except on weekends) for up to 30 injections. […] Evaluating the long-term outcome was complicated by the fact that several animals in the compound of Example 1 treated groups developed tumor necrosis/ulceration and had to be euthanized before the end of the experiment, as required by IACUC protocol. This tumor necrosis is believed to be treatment-related as it occurred in 5/12 treated animals, but 0/6 of the control group. […] The overall response seemed to be equivalent or better in the low dose group compared with the high dose group, but that may be consistent with the mechanism of action, since a similar effect has been observed for decitabine in humans.

[3] = system: DNA methyltransferase activity of HeLa nuclear extracts; experiment: Test E experiment 3: DNA methyltransferase activity of purified HeLa nuclear extracts incubated in vitro with compound (EpiQuik kit); format: biochemical; settings: experiment 3: 20 μg HeLa nuclear extracts incubated in vitro with 500 nM; untreated 0.264
Description: as §1, §2, §3

[4] = system: panel of 60 human tumor cell lines; experiment: Test D: screen against a panel of 60 human tumor cell lines; format: cell-based
Text: Test D Anti-Cancer Activity
The compound of Example 1 below was screened against a panel of 60 human tumor cell lines.

SMILES: CCCCCC(O)C#CC(F)(F)Br (stereo not drawn) [Example 1, 1-bromo-1,1-difluoro-non-2-yn-4-ol]
- Relative DNA Methyltransferase Activity ([1]; experiment 1: nuclear extracts from lung cancer cells treated 1 μM for 2 h, untreated 0.114): 0.073
- Relative DNA Methyltransferase Activity ([1]; experiment 2 (repeat): nuclear extracts from lung cancer cells treated 1 μM for 2 h, untreated 0.122): 0.075
- tumor necrosis/ulceration, treated animals affected ([2]; approx. 25 or 50 mg/kg i.p., 0/6 in the control group): 5/12
- tumor growth compared to control-treated mice ([2]; approx. 25 or 50 mg/kg i.p., difference not statistically significant (p≧0.13)): grew slower
- size of ulcerated tumors versus control group at the same time point ([2]; treated mice euthanized early due to tumor necrosis): substantially smaller
- Relative DNA Methyltransferase Activity [3]: 0.092
- GI50 ([4]; Homo sapiens, all seven breast cancer cell lines, including a doxorubicin-resistant line): 10 to 66 nM
- activity by tumor type ([4]; breast, prostate, colon and brain (CNS) tumor cells): highly active
- activity by tumor type ([4]; other tumor types, e.g. melanomas): less potent
